Test results reported in patent publication US20220169654A1, “New Organic Compounds” (Servier Pharmaceuticals LLC, priority 2020, published 2022).

Assays:
HCT116 MTAP+/+ = assay: Inhibition of cellular proliferation, 4 days, Cell Titer Glo, HCT116 MTAP+/+; type: cell-based; settings: Homo sapiens, HCT-116, 96 h, IC50 bin with Max Inh., read-out: 4 Day Relative Growth Inhibition (MTAP +/+)
Summary of the method: (§1)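 IC50 derived from blank-corrected ATP luminescence (Cell Titer Glo) expressed relative to within-plate 0.2% DMSO wells. Compound, as a 10-point 3-fold series, was added 24 h after seeding the MTAP+/+ or MTAP−/− HCT116 cells and incubated 4 days at 37° C./5% CO2.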

[1] = tested on: SAM in HCT116 human colon carcinoma cell line with MTAP gene deleted (MTAP −/−); assay: Cellular assay of target engagement (SAM), LC-MS/MS, 72 hrs; type: cell-based; settings: HCT-116, IC50 bin with Max Inh., read-out: Cell 72 h SAM Inhibition (MTAP −/−)
Summary of the method: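 SAM levels were quantified by LC-MS/MS (m/z 399.2→250.1, d3-SAM internal standard) from cold methanol/acetic acid extracts, yielding IC50. Compound was applied as a 10-point 3-fold series for 72 hrs to MTAP −/− HCT116 cells seeded 24 hours before.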

HCT116 MTAP−/− = assay: Inhibition of cellular proliferation, 4 days, Cell Titer Glo, HCT116 MTAP−/−; type: cell-based; settings: Homo sapiens, HCT-116, 96 h, IC50 bin with Max Inh., read-out: 4 Day Relative Growth Inhibition (MTAP −/−)
Summary of the method: as §1

MAT2A homodimer = molecular target: T1, MAT2A homodimer (Homo sapiens, UniProt P31153); assay: MAT2A inhibition (biochemical, liberated phosphate, PiColorLock Gold); settings: recombinant MAT2A homodimer; IC50 bin with Max Inh.; read-out: Enzyme Inhibition Bin
T1 construct: inferred from Ni sepharose purification with imidazole elution; made in house; host or cells: Sf9 insect cells, baculovirus (Bac to Bac, pFASTBAC1)
Summary of the method: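 Enzyme at 4 μg/mL and compound equilibrated 60 min at 25 °C, then 60 min reaction after adding substrate mix (500 μM ATP, 400 μM methionine). Released phosphate quantified by colorimetric kit against a phosphate standard curve to give IC50. Secondary format used 1 μg/mL enzyme with 5 h incubation.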

T1 sequence (P31153 whole entry): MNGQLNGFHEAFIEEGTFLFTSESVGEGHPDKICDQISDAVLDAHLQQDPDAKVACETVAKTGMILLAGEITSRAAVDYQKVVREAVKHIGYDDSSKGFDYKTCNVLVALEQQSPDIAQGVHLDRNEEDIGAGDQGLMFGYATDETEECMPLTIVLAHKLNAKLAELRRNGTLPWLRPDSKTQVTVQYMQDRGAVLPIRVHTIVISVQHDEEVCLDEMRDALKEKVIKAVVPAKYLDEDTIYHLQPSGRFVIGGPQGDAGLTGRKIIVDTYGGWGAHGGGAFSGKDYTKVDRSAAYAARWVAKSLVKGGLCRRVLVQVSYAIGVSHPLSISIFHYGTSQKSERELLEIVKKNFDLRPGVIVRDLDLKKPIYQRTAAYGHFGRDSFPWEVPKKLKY

IC50 (HCT116 MTAP+/+) | IC50 [1] | IC50 (HCT116 MTAP−/−) | IC50 (MAT2A homodimer) | SMILES
> 1 µM | 0.1 to 1 µM | 0.1 to 1 µM | < 0.1 µM | Cn1cc2cc(-n3nc4c(C#N)cn(CC5CC5)c4c(-c4ccc([C@@H]5CC5(F)F)nc4)c3=O)ccc2n1 [Example 252, (S)-5-(cyclopropylmethyl)-4-(6-(2,2-difluorocyclopropyl)pyridin-3-yl)-2-(2-methyl-2H-indazol-5-yl)-3-oxo-3,5-dihydro-2H-pyrrolo[3,2-c]pyridazine-7-carbonitrile]
> 1 µM | 0.1 to 1 µM | 0.1 to 1 µM | < 0.1 µM | Cc1ccc(-c2c(=O)n(-c3ccc4nn(C)cc4c3)nc3cnn(CC4CC4)c23)cn1 [Example 222, 1-(cyclopropylmethyl)-5-(2-methyl-2H-indazol-5-yl)-7-(6-methylpyridin-3-yl)-1,5-dihydro-6H-pyrazolo[4,3-c]pyridazin-6-one]
0.1 to 1 µM | < 0.1 µM | < 0.1 µM | < 0.1 µM | [2H]C([2H])([2H])Oc1ccc(-c2c(=O)n(-c3ccc4nn(C)cc4c3)nc3c2n(CC2CC2)c(=O)n3C)cc1 [Example 201, 5-(cyclopropylmethyl)-4-(4-(methoxy-d3)phenyl)-7-methyl-2-(2-methyl-2H-indazol-5-yl)-2,7-dihydro-3H-imidazo[4,5-c]pyridazine-3,6(5H)-dione]
0.1 to 1 µM | < 0.1 µM | < 0.1 µM | < 0.1 µM | Cn1cc2cc(-n3nc4c(C(F)(F)F)cn(CC5CC5)c4c(-c4ccc(C5CC5)nc4)c3=O)ccc2n1 [Example 246, 5-(cyclopropylmethyl)-4-(6-cyclopropylpyridin-3-yl)-2-(2-methyl-2H-indazol-5-yl)-7-(trifluoromethyl)-2,5-dihydro-3H-pyrrolo[3,2-c]pyridazin-3-one]
> 1 µM | < 0.1 µM | < 0.1 µM | < 0.1 µM | Cn1cc2cc(-n3nc4c(c(-c5ccc(C6CC6)nc5)c3=O)n(CC3CC3)c(=O)n4C)ccc2n1 [Example 198, 5-(cyclopropylmethyl)-4-(6-cyclopropylpyridin-3-yl)-7-methyl-2-(2-methyl-2H-indazol-5-yl)-2,7-dihydro-3H-imidazo[4,5-c]pyridazine-3,6(5H)-dione]
0.1 to 1 µM | < 0.1 µM | < 0.1 µM | < 0.1 µM | Cn1cc2cc(-n3nc4[nH]c(=O)n(CC5CC5)c4c(-c4ccc(C5CC5)nc4)c3=O)ccc2n1 [Example 203, 5-(cyclopropylmethyl)-4-(6-cyclopropylpyridin-3-yl)-2-(2-methyl-2H-indazol-5-yl)-2,7-dihydro-3H-imidazo[4,5-c]pyridazine-3,6(5H)-dione]
0.1 to 1 µM | < 0.1 µM | 0.1 to 1 µM | < 0.1 µM | Cn1cc2cc(-n3nc4nnn(CC5CC5)c4c(-c4ccc(OC(F)F)cc4)c3=O)ccc2n1 [Example 208, 1-(cyclopropylmethyl)-7-(4-(difluoromethoxy)phenyl)-5-(2-methyl-2H-indazol-5-yl)-1,5-dihydro-6H-[1,2,3]triazolo[4,5-c]pyridazin-6-one]
> 1 µM | < 0.1 µM | < 0.1 µM | < 0.1 µM | Cc1nn(CC2CC2)c2c(-c3ccc(C4CC4)nc3)c(=O)n(-c3ccc4nn(C)cc4c3)nc12 [Example 211, 1-(cyclopropylmethyl)-7-(6-cyclopropylpyridin-3-yl)-3-methyl-5-(2-methyl-2H-indazol-5-yl)-1H,5H,6H-pyrazolo[4,3-c]pyridazin-6-one]

Further lines, the compound ahead of its results:

SMILES | IC50 (HCT116 MTAP+/+) | IC50 [1] | IC50 (HCT116 MTAP−/−) | IC50 (MAT2A homodimer)
N#Cc1cn(CC2CC2)c2c(-c3ccc(C4CC4)nc3)c(=O)n(-c3ccc4nn(CC5CC5)cc4c3)nc12 [Example 160, 5-(cyclopropylmethyl)-2-(2-(cyclopropylmethyl)-2H-indazol-5-yl)-4-(6-cyclopropylpyridin-3-yl)-3-oxo-3,5-dihydro-2H-pyrrolo[3,2-c]pyridazine-7-carbonitrile] | 0.1 to 1 µM | < 0.1 µM | < 0.1 µM | < 0.1 µM
Cn1cc2cc(-n3nc4c(C#C[Si](C)(C)C)cn(CC5CC5)c4c(-c4ccc(C5CC5)nc4)c3=O)ccc2n1 [Example 243, 5-(cyclopropylmethyl)-4-(6-cyclopropylpyridin-3-yl)-2-(2-methyl-2H-indazol-5-yl)-7-((trimethylsilyl)ethynyl)-2,5-dihydro-3H-pyrrolo[3,2-c]pyridazin-3-one] | > 1 µM | < 0.1 µM | < 0.1 µM | < 0.1 µM
Cn1cc2cc(-n3nc4ccn(CC5CC5)c4c(-c4ccc(C#N)cc4)c3=O)ccc2n1 [Example 154, 4-(5-(cyclopropylmethyl)-2-(2-methyl-2H-indazol-5-yl)-3-oxo-3,5-dihydro-2H-pyrrolo[3,2-c]pyridazin-4-yl)benzonitrile] | 0.1 to 1 µM | 0.1 to 1 µM | 0.1 to 1 µM | < 0.1 µM
Cn1cc2cc(-n3nc4c(C(N)=O)cn(CC5CC5)c4c(-c4ccc(C5CC5)nc4)c3=O)ccc2n1 [Example 165, 5-(cyclopropylmethyl)-4-(6-cyclopropylpyridin-3-yl)-2-(2-methyl-2H-indazol-5-yl)-3-oxo-3,5-dihydro-2H-pyrrolo[3,2-c]pyridazine-7-carboxamide] | 0.1 to 1 µM | < 0.1 µM | < 0.1 µM | < 0.1 µM
Cc1nc2ccc(-n3nc4ccn(CC5CC5)c4c(-c4ccc(C(F)F)nc4)c3=O)cc2n1C [Example 140, 5-(cyclopropylmethyl)-4-(6-(difluoromethyl)pyridin-3-yl)-2-(1,2-dimethyl-1H-benzo[d]imidazol-6-yl)-2,5-dihydro-3H-pyrrolo[3,2-c]pyridazin-3-one] | 0.1 to 1 µM | < 0.1 µM | < 0.1 µM | < 0.1 µM
[2H]C([2H])([2H])Oc1ccc(-c2c(=O)n(-c3ccc4nn(C)cc4c3)nc3ncn(CC4CC4)c23)cc1 [Example 194, 5-(cyclopropylmethyl)-4-(4-(methoxy-d3)phenyl)-2-(2-methyl-2H-indazol-5-yl)-2,5-dihydro-3H-imidazo[4,5-c]pyridazin-3-one] | 0.1 to 1 µM | < 0.1 µM | < 0.1 µM | < 0.1 µM
Cn1cc2cc(-n3nc4c(C(N)=O)cn(CC5CC5)c4c(-c4ccc(C5CC5)cc4)c3=O)ccc2n1 [Example 166, 5-(cyclopropylmethyl)-4-(4-cyclopropylphenyl)-2-(2-methyl-2H-indazol-5-yl)-3-oxo-3,5-dihydro-2H-pyrrolo[3,2-c]pyridazine-7-carboxamide] | > 1 µM | < 0.1 µM | < 0.1 µM | < 0.1 µM
Cn1cc2cc(-n3nc4c(C#N)cn(CC5CC5)c4c(-c4ccc5[nH]cc(C#N)c5c4)c3=O)ccc2n1 [Example 130, 4-(3-cyano-1H-indol-5-yl)-5-(cyclopropylmethyl)-2-(2-methyl-2H-indazol-5-yl)-3-oxo-3,5-dihydro-2H-pyrrolo[3,2-c]pyridazine-7-carbonitrile] | > 1 µM | < 0.1 µM | 0.1 to 1 µM | < 0.1 µM
CC(C)c1ccc(-c2c(=O)n(-c3ccc4nn(C)cc4c3)nc3c(C#N)cn(CC4CC4)c23)cn1 [Example 128, 5-(cyclopropylmethyl)-4-(6-isopropylpyridin-3-yl)-2-(2-methyl-2H-indazol-5-yl)-3-oxo-3,5-dihydro-2H-pyrrolo[3,2-c]pyridazine-7-carbonitrile] | > 1 µM | < 0.1 µM | 0.1 to 1 µM | < 0.1 µM
